In PMC8003485, “Synthesis and Evaluation of Novel α-Aminoamides Containing Benzoheterocyclic Moiety for the Treatment of Pain” (Molecules, 2021):
Where two headings read alike, the source gives them in different places.

Columns and labels:
[1] = target: T1, hNav1.7 (Homo sapiens, UniProt Q15858); test: Whole-cell patch clamp assay for hNav1.7 inhibition (HEK293 cells stably expressing hNav1.7); type: cell-based; details: HEK293, 10 µM, TTX-sensitive Nav1.7 current, mean ± SD
T1 construct: expressed in transfected cells; host or cells: HEK293
T1 sequence (Q15858 whole entry): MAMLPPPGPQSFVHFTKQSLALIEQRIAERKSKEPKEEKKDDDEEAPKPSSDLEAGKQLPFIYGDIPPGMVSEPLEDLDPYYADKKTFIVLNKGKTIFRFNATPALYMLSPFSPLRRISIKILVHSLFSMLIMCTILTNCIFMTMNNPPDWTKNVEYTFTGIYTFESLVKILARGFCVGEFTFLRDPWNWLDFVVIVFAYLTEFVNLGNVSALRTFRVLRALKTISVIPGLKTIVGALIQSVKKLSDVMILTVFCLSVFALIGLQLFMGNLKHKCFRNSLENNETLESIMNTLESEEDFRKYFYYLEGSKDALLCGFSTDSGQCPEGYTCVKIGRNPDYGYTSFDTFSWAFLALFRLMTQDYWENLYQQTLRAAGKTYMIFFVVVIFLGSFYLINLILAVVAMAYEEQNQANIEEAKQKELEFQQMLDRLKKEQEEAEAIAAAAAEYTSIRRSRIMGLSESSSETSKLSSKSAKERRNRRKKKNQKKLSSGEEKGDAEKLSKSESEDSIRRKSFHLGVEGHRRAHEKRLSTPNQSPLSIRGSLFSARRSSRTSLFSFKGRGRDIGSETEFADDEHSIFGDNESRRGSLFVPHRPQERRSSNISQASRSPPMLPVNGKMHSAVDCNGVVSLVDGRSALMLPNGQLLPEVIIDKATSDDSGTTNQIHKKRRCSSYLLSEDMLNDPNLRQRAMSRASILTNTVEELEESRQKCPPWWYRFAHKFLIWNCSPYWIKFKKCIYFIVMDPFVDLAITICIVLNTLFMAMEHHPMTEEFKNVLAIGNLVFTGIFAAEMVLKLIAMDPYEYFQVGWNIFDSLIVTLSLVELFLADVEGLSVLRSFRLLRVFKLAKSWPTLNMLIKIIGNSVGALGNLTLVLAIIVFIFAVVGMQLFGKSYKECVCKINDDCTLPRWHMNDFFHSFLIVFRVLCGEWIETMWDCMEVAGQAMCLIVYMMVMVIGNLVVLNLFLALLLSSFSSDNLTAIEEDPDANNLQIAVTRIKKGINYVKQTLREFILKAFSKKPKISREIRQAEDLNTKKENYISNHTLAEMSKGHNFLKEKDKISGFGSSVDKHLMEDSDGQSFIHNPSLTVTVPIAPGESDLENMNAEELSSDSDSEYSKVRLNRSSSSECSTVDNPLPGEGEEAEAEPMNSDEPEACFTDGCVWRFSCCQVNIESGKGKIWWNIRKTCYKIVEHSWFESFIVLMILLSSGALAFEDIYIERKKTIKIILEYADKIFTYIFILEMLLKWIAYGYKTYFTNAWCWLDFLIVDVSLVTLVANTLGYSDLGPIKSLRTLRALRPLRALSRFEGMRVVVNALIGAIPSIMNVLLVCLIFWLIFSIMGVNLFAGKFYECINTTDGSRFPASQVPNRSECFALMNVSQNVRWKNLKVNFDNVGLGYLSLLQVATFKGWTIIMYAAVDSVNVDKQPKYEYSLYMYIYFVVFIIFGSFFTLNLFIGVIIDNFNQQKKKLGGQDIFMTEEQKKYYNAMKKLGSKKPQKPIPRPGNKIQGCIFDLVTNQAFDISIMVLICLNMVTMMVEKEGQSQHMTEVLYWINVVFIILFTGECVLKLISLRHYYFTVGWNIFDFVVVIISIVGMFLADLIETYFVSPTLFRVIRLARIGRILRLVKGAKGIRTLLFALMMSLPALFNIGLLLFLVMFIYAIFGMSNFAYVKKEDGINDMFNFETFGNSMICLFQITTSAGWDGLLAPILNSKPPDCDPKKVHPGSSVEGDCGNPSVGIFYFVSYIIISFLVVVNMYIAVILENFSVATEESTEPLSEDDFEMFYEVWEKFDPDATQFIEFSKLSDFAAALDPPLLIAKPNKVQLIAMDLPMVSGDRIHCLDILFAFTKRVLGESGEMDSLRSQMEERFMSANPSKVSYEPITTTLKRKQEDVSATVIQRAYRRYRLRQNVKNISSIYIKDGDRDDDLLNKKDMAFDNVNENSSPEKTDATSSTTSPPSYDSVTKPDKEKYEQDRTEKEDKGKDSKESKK
Description: The compounds were tested as hNav1.7 peak current inhibitors at room temperature using human embryonic kidney 293 cells stably expressing hNav1.7. The holding voltage was depolarized to 0 mV from −120 mV for 20 ms and restored to −75 mV for 8 s. After that, the membrane potential was recovered to −120 mV for 20 ms and then depolarized to 0 mV for another 20 ms. Finally, the voltage was renewed to −120 mV for 30 ms. The potential was applied every 20 s. The compounds were administered when the voltage of hNav1.7 recorded by the whole-cell patch clamp was stable. Every compound concentration was tested for 5 min, and all compounds were tested at several concentrations and with multiple cells.

[2] = test system: ICR (CD−1) male mice; test: Formalin test (mouse, phase II paw licking); type: in vivo; details: Mus musculus, ip; 10 mg/kg, i.p.; phase II (15–30 min); mean ± SD, n = 8; read-out: % Analgesia (formalin test)
Description: The formalin test was carried out using the method described previously. During the formalin test, Institute of Cancer Research (ICR; CD−1) male mice (weight: 22–25 g) were acclimated to the environment for two days before the experiment with food and water available freely. The mice were housed under a 12 h/12 h light/dark cycle. The temperature and humidity of the room were kept at 25 ± 2 °C and 50–60%, respectively. The mice were divided into a vehicle group, a ralfinamide group, and test compound groups randomly, with eight mice in each group. All compounds were dissolved in saline and administered by intraperitoneal injection (n = 8) or intragastric administration by mouth (n = 8) at 10 mg/kg. The vehicle group was given the same volume of saline.
After administration, the mice were placed into polyvinyl chloride (PVC) observation chambers. Thirty minutes later, the mice were injected subcutaneously with 20 μL of 2.7% formalin solution into the surface of their right hind paw and were returned to their PVC chambers immediately to observe their behavior. The cumulative time each mouse licked its right hind paw during phase II (15–30 min) was recorded as its painful time in phase II. The analgesic effects of the compounds were presented as the mean ± standard deviation. The data were analyzed by SPSS using one-way analysis of variance followed by Dunnett’s test. The analgesic activity of the test compounds was calculated according to the following formula. %Analgesia=Average Time (Vehicle)−Average Time (Drug)/Average Time (Vehicle)× 100%

[3] = read-out: Inhibitory Effect against Nav1.7, Activated State (TP−1)
[4] = read-out: Inhibitory Effect against Nav1.7, Inactivated State (TP−2)

Structure (SMILES)	inhibition at 10 µM [1, 3] [%]	inhibition at 10 µM [1, 4] [%]	inhibition in vivo at 10 mg/kg [2] [%]
C[C@H](NCc1cccc(COc2cccc3[nH]cnc23)c1)C(N)=O [Compound 5a, (S)-2-((3-(((1H-Benzo[d]imidazol-4-yl)oxy)methyl)benzyl)amino)propanamide]	5.1 ± 1.2	10.7 ± 0.4	51 ± 21.6
C[C@H](NCc1ccc(COc2cccc3[nH]cnc23)cc1)C(N)=O [Compound 5b, (S)-2-((4-(((1H-Benzo[d]imidazol-4-yl)oxy)methyl)benzyl)amino)propanamide]	3.7 ± 2	1.4 ± 0.6	27.4 ± 19.2
C[C@H](NCc1cccc(COc2ccc3[nH]cnc3c2)c1)C(N)=O [Compound 5c, (S)-2-((3-(((1H-Benzo[d]imidazol-5-yl)oxy)methyl)benzyl)amino)propanamide]	1.7 ± 0.3	2.6 ± 0.8	48.8 ± 15.5
C[C@H](NCc1ccc(COc2ccc3[nH]cnc3c2)cc1)C(N)=O [Compound 5d, (S)-2-((4-(((1H-Benzo[d]imidazol-5-yl)oxy)methyl)benzyl)amino)propanamide]	0.7 ± 0.8	1.5 ± 0.9	60.8 ± 32.2

The next lines start with results.

inhibition at 10 µM [1, 3] [%]	inhibition at 10 µM [1, 4] [%]	Structure (SMILES)	inhibition in vivo at 10 mg/kg [2] [%]
6.4 ± 4.9	23.8 ± 3.6	C[C@H](NCc1cccc(COc2cccc3ncccc23)c1)C(N)=O [Compound 7a, (S)-2-((3-((Quinolin-5-yloxy)methyl)benzyl)amino)propanamide]	48 ± 27.8
14.7 ± 5.4	29.8 ± 0.6	C[C@H](NCc1ccc(COc2cccc3ncccc23)cc1)C(N)=O [Compound 7b, (S)-2-((4-((Quinolin-5-yloxy)methyl)benzyl)amino)propanamide]	37.2 ± 25.3
8.6 ± 1.2	30 ± 2.9	C[C@H](NCc1cccc(COc2ccc3ncccc3c2)c1)C(N)=O [Compound 7c, (S)-2-((3-((Quinolin-6-yloxy)methyl)benzyl)amino)propanamide]	81.5 ± 14.8
3.7 ± 0.5	13.5 ± 0.4	C[C@H](NCc1ccc(COc2ccc3ncccc3c2)cc1)C(N)=O [Compound 7d, (S)-2-((4-((Quinolin-6-yloxy)methyl)benzyl)amino)propanamide]	20.9 ± 18.7
3.6 ± 3.3	47.7 ± 2.7	C[C@H](NCc1cccc(COc2ccc3cccnc3c2)c1)C(N)=O [Compound 7e, (S)-2-((3-((Quinolin-7-yloxy)methyl)benzyl)amino)propanamide]	30.6 ± 14.7
-1.8 ± 3.2	31.6 ± 3.4	C[C@H](NCc1ccc(COc2ccc3cccnc3c2)cc1)C(N)=O [Compound 7f, (S)-2-((4-((Quinolin-7-yloxy)methyl)benzyl)amino)propanamide]	15.9 ± 17.6
14.7 ± 0.2	46 ± 0.1	C[C@H](NCc1cccc(COc2cccc3cccnc23)c1)C(N)=O [Compound 7g, (S)-2-((3-((Quinolin-8-yloxy)methyl)benzyl)amino)propanamide]	35.6 ± 26.1
9.1 ± 4.3	38.6 ± 4.7	C[C@H](NCc1ccc(COc2cccc3cccnc23)cc1)C(N)=O [Compound 7h, (S)-2-((4-((Quinolin-8-yloxy)methyl)benzyl)amino)propanamide]	57.2 ± 30.1
